Measured values reported in paper PMC6272127, “Synthesis, Antiproliferative Activity and Molecular Properties Predictions of Galloyl Derivatives” (Molecules, 2015).
Converted amounts (≈) assume the structure as drawn.

Experiments:
HT-29 (colon) = assay: Anticancer assay in vitro (sulforhodamine B), HT-29; assay type: cell-based
Description: (§1) The experiments were performed in triplicate.

786-0 (renal) = assay: cells; assay type: cell-based
Description: as §1

K-562 (leukemia) = assay: cells; assay type: cell-based; conditions: Homo sapiens, K562; K-562, 48 h, SRB
Description: as §1

PC-3 (prostate) = assay: cells; assay type: cell-based
Description: as §1

[1] = tested on: NCI-ADR/RES (breast expressing the multiple drug resistance phenotype); assay: cells; assay type: cell-based; conditions: NCI/ADR-RES, 48 h
Description: as §1

[2] = tested on: NCI-H460 (lung, non-small cells); assay: cells; assay type: cell-based
Description: as §1

U251 (glioma, CNS) = assay: cells
Description: The GI50 values (growth inhibitory activity) (Table 1) refer to the drug concentration that produces a 50% reduction of cellular growth compared with the untreated control cells. The TGI (cytostatic activity) and LC50 (cytotoxic activity) values (Table 2) refer to the drug concentration required for total growth inhibition and killing 50% of the cells, respectively.
The synthesized compounds were assessed in the following ten human tumor cell lines from various tissues kindly provide by the National Cancer Institute (Frederick, MD, USA): U251 (glioma, CNS), MCF-7 (breast), NCI-ADR/RES (breast expressing the multiple drug resistance phenotype), 786-0 (renal), NCI-H460 (lung, non-small cells), PC-3 (prostate), OVCAR-3 (ovarian), HT-29 (colon), K-562 (leukemia) and HaCaT (keratinocytes). Stock cultures were grown in media containing 5 mL of RPMI 1640 (Gibco BRL) supplemented with 5% fetal bovine serum. Gentamicin ([…]) was added to the experimental cultures. Cells in 96-well plates (100 µL cells/well) were exposed to sample concentrations in DMSO/RPMI (0.25, 2.5, 25, and 250 µg/mL) at 37 °C and 5% CO2 for 48 h. […] Next, cells were fixed with 50% trichloroacetic acid, and cell proliferation was determined by spectrophotometric quantification (540 nm) of cellular protein content employing the sulforhodamine B assay. Doxorubicin (0.025–25 µg/mL) was used as a positive control. Three measurements were obtained: first at time point zero (T0, at the beginning of incubation) and then 48 h post-incubation for both the compound-free (C) and tested (T) cells. Cell proliferation was determined using the equation 100 × [(T − T0)/C − T0]. A cytostatic effect was observed when T ≥ T0, while a cytocidal effect occurred when T < T0. The experiments were performed in triplicate.

HaCaT (keratinocytes) = assay: Anticancer assay in vitro (sulforhodamine B), HaCaT; assay type: cell-based; conditions: 48 h
Description: as §1

[3] = as above; assay type: cell-based; conditions: human, HaCaT keratinocytes, killing 50% of cells, read-out: LC50
Description: as §1

OVCAR-3 (ovarian) = assay: Anticancer assay in vitro (sulforhodamine B), OVCAR-3; assay type: cell-based; conditions: for GI50: OVCAR-3, 48 h, SRB
Description: as §1

MCF-7 (breast) = assay: Anticancer assay in vitro (sulforhodamine B), MCF-7; assay type: cell-based
Description: as §1

NNC(=O)c1cc(O)c(O)c(O)c1 [Compound 3, Galloyl hydrazide] showed a TGI (HT-29 (colon); HT-29, total growth inhibition, 48 h) of 3.27 µg/mL (≈ 17.8 µM), a GI50 (HT-29 (colon); Homo sapiens, HT-29, 48 h, SRB) of 1210 nM and a CC50 (HT-29 (colon); Homo sapiens, HT-29, killing 50% of cells, 48 h, read-out: LC50 (the source's name)) of 26.2 µg/mL (≈ 142 µM). The TGI (786-0 (renal); 786-0, total growth inhibition, 48 h) was 17.98 µg/mL (≈ 97.6 µM), the GI50 (786-0 (renal); Homo sapiens, 786-0, 48 h, SRB) was 1560 nM and the GI50 (K-562 (leukemia)) was 1170 nM. The GI50 (PC-3 (prostate); Homo sapiens, PC-3, 48 h, SRB) was 3530 nM, the TGI (PC-3 (prostate); PC-3, total growth inhibition, 48 h) was 18.31 µg/mL (≈ 99.4 µM) and the GI50 ([1]; Homo sapiens, SRB) was 910 nM. It also gave a TGI ([1]; total growth inhibition) of 2.56 µg/mL (≈ 13.9 µM), a GI50 ([2]; Homo sapiens, NCI-H460, 48 h, SRB) of 5540 nM and a TGI ([2]; NCI-H460, total growth inhibition, 48 h) of 17.35 µg/mL (≈ 94.2 µM). For the same molecule, the GI50 (U251 (glioma, CNS); Homo sapiens, U-251, 48 h) was 1110 nM, the CC50 (U251 (glioma, CNS); Homo sapiens, U-251, 48 h, read-out: LC50) was 31.4 µg/mL (≈ 170 µM) and the TGI (U251 (glioma, CNS); U251, total growth inhibition, 48 h) was 6.13 µg/mL (≈ 33.3 µM). The GI50 (HaCaT (keratinocytes); Homo sapiens, SRB) was 2500 nM, the TGI (HaCaT (keratinocytes); total growth inhibition) was 29.02 µg/mL (≈ 158 µM) and the CC50 at 48 h [3] was > 100 µg/mL. The GI50 (OVCAR-3 (ovarian); Homo sapiens) was ≤ 890 nM, the GI50 (OVCAR-3 (ovarian)) was 880 nM and the TGI (OVCAR-3 (ovarian); OVCAR-3, total growth inhibition, 48 h) was 9.77 µg/mL (≈ 53.1 µM). The GI50 (MCF-7 (breast); Homo sapiens, MCF7, MCF-7, 48 h, SRB) was 850 nM, the TGI (MCF-7 (breast); MCF-7, as printed in the text) was 2360 nM and the TGI (MCF-7 (breast); MCF-7, total growth inhibition, 48 h) was 2.36 µg/mL.
